Reference: patent publication US9498412B2, “Method for producing microcapsules with a sun protection effect” (Greenjoy Biotech Co., Ltd., priority 2014, dated 2016)
Like-named read-outs stand apart in the source and are kept apart here.

Assay type: in vitro ADME
Conditions: Landrace, pig, 3 % in mineral oil
Procedure: 5. In Vitro Transdermal Delivery Analysis:
(1) Preparing penetration membranes from a swine skin: An ear skin of a 6-month-old Landrace pig was prepared and cleaned with deionized water. The upper skin of the pig ear was cut by a scalpel to remove the fat layer. Then, the pig ear was cut into a plurality of penetration membranes each having an area of 1.5×1.5 cm^2 and each having a thickness of 605 μm. The penetration membranes were soaked in phosphate buffer saline (PBS), were sealed in a bag, and were frozen for future use.
(2) Before experiment, the penetration membranes were unfrozen in PBS to room temperature such that the gaps between the keratinocyte cells returned to their natural state. The penetration membranes were fixed in a Franz-type diffusion cell (see FIG. 2). The diffusion area was 0.636 cm^2. To test the skin integrity, the upper and lower sections of the diffusion cell were filled with 50% ethanol+50% PBS. After removing bubbles from the lower chamber, a sample of 0.5 g was placed into the upper, donor cell, and 50% ethanol+50% PBS was placed into the lower, receptor cell having a volume of 5.3 mL. A thermostat water tank heater was used to control the water temperature to be 35° C.±1. Stirring was carried out by using a magnet to balance the drug concentration distribution in the receptor cell.
(3) Each experiment used 5 diffusion cells to obtain the average value. 50 μL was sampled from the receptor cell and analyzed by HPLC. The same amount of a physiological solution was filled back into the receptor cell to maintain the total volume in the receptor cell.
(4) The injected volume was 50 μL. The detection wavelength was 260 nm. A mixture of 88% methanol, 11% water, and 1% acetic acid was used as the mobile phase in isocratic elution. The flow rate of the mobile phase was 1.0 mL/min. OMC of 1 ppm, 10 ppm, 50 ppm, and 100 ppm and avobenzone standard solution were used to create a calibration curve. Each concentration was detected three times to obtain the average value. Peak-ABC Chromatography Data Handling System (manufactured by Great Tide Instruments, Taiwan) was used to capture and handle the signals. A sample of 50 μL was sampled from the receptor cell and analyzed by HPLC. Peak-ABC Chromatography Data Handling System was used to analyze the concentration for calculating the lag time and the flux.
The Franz-type diffusion cell system was used to assess the penetration characteristics of carrier-entrapped filters. […] The stratum corneum is an important barrier of the skin for resisting alien objects and is also a hindrance to transdermal delivery of an active constituent. During an initial stage of passage from the donor site to the receptor site through the skin, there is a lag time for the active constituent to penetrate the membrane of the saturated skin. After that, the active constituent remains in steady-state diffusion for a period of time during which the diffusion flux is not changed.
Assume the concentrations of the active constituent at the donor site and the receptor site of the penetration membrane are respectively Cv and Cr, the mechanism of initial transdermal absorption can be explained by Fick's first law of diffusion: J=dQ/Dt=DAK(Cv−Cr)/h
wherein J is the transdermal flux, Q is the cumulative penetration amount, D is the diffusion coefficient, A is the diffusional surface area, K is the partition coefficient, and h is the diffusional pathlength.
Since Cr is very small at the initial stage of penetration, DC=(Cv−Cr) arrpoximates Cv. The transdermal flux is in proportion to the concentration difference ([…]). Thus, the slope of an optimal line in a diagram obtained from the cumulative penetration quantity Q and the penetration time t is the transdermal flux J. The lag time parameter can be obtained by linear extrapolation to the intersection on X axis. […]

Amount in receptor site (0 h)	Transdermal flux (%) (0 h)	lag time	Amount in receptor site (0.5 h)	Transdermal flux (%) (0.5 h)	Amount in receptor site (1 h)	Transdermal flux (%) (1 h)	Amount in receptor site (2 h)	Transdermal flux (%) (2 h)	Amount in receptor site (3 h)	Transdermal flux (%) (3 h)	transdermal flux (4 h)	Amount in receptor site (6 h)	Transdermal flux (%) (6 h)	transdermal flux (6 h)	Compound
0 μg/cm^2	0%	0.15 h	0 μg/cm^2	0%	31.84 ± 1.81 μg/cm^2	0.13 ± 0.01%	65.15 ± 7.96 μg/cm^2	0.28 ± 0.03%	121.97 ± 4.95 μg/cm^2	0.52 ± 0.02%	40.069 μg/cm^2·hr	227.55 ± 12.94 μg/cm^2	0.96 ± 0.05%		CCCCC(CC)COC(=O)C=Cc1ccc(OC)cc1 (stereo not shown) [OMC, octyl methoxycinnamate]
0 μg/cm^2	0%	0.23 h	0 μg/cm^2	0%	20.12 ± 2.19 μg/cm^2	0.09 ± 0.01%	48.21 ± 2.73 μg/cm^2	0.20 ± 0.01%	84.85 ± 4.27 μg/cm^2	0.36 ± 0.02%		161.26 ± 3.74 μg/cm^2	0.68 ± 0.02%	28.237 μg/cm^2·hr	COc1ccc(C(=O)CC(=O)c2ccc(C(C)(C)C)cc2)cc1 [avobenzone]
